Values of other authors in patent publication US20080066744A1, “PROCESS FOR PRODUCING METERED DOSE INHALER FORMULATIONS” (Schering Corporation, priority 2002, published 2008).
Like-named read-outs stand apart in the source and are kept apart here.

solubility (in ethanol)	solubility (in water)	solubility (in acetone)	solubility (in chloroform)	solubility (in isopropanol)	solubility (in methanol)	solubility (in tetrahydrofuran)	Compound
slightly soluble	soluble						(alpha) ^1[(tert-Butylamino)methyl]4-hydroxy-m-xylene-(alpha),(alpha)′-diol sulfate (2:1)(salt) [Albuterol sulfate]
slightly soluble	practically insoluble	soluble	soluble	slightly soluble	slightly soluble	freely soluble	C[C@@H]1C[C@H]2[C@@H]3CCC4=CC(=O)C=C[C@]4(C)[C@@]3(Cl)[C@@H](O)C[C@]2(C)[C@@]1(OC(=O)c1ccco1)C(=O)CCl [Mometasone furoate, 9,21-Dichloro-11(beta), 17-dihydroxy-16(alpha)-methylpregna-1,4-diene-3,20-dione 17-(2 furoate)]
